From PubChem BioAssay AID330 (DTP/NCI, 2004) come the findings set out here.

The assay has as its system P388 leukemia ip, CD2F1 mice, survival T/C. The experiment in a line: NCI In Vivo Anticancer Drug Screen. Data for tumor model P388 Leukemia (intraperitoneal) in CD2F1 (CDF1) mice. The conditions noted are these: endpoint: median survival time, higher = longer survival. In outline:
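Mice carrying the transplanted tumor received test compound or vehicle. Survival was recorded in each group, and the value is the treated-group measurement divided by that of the vehicle-treated control group.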

Where [1] appears, read: dose: 100.0 mg/kg/injection, schedule: Q01DX009 (ip), vehicle: saline with Tween-80.
Setting [2] is: dose: 60.0 mg/kg/injection, schedule: Q01DX005 (ip), vehicle: saline with Tween-80.
Where [3] appears, read: dose: 120.0 mg/kg/injection, schedule: Q01DX005 (ip), vehicle: saline with Tween-80.
Where [4] appears, read: dose: 240.0 mg/kg/injection, schedule: Q01DX005 (ip), vehicle: saline with Tween-80.
Setting [5] is: dose: 50.0 mg/kg/injection, schedule: Q01DX009 (ip), vehicle: Klucel (hydroxypropylcellulose) (HPC).
The mark [6] stands for this setting: dose: 100.0 mg/kg/injection, schedule: Q01DX009 (ip), vehicle: Klucel (hydroxypropylcellulose) (HPC).
[7] abbreviates: dose: 200.0 mg/kg/injection, schedule: Q01DX009 (ip), vehicle: Klucel (hydroxypropylcellulose) (HPC).
The mark [8] stands for this setting: dose: 50.0 mg/kg/injection, schedule: Q01DX005 (ip), vehicle: Klucel (hydroxypropylcellulose) (HPC).
Setting [9] is: dose: 100.0 mg/kg/injection, schedule: Q01DX005 (ip), vehicle: Klucel (hydroxypropylcellulose) (HPC).
The mark [10] stands for this setting: dose: 100.0 mg/kg/injection, schedule: Q01DX009 (ip), vehicle: saline.

“And” between values parts separate entries of the source, which are not always exact repeats. Identical values can stand only once. Toxic doses and inconclusive results are not listed.

As to `CC(=O)/C(=C\c1c(Cl)cccc1Cl)C(=O)CCN(C)C`, the T/C was 120 % of control (dose: 7.5 mg/kg/injection, schedule: Q01DX005 (ip), vehicle: saline); 117 % of control (dose: 15.0 mg/kg/injection, schedule: Q01DX005 (ip), vehicle: saline); 117 % of control (dose: 30.0 mg/kg/injection, schedule: Q01DX005 (ip), vehicle: saline).

In the case of `CC(Oc1ccccc1)C(=O)O` (centres undefined), the T/C (dose: 50.0 mg/kg/injection, schedule: Q01DX009 (ip), vehicle: saline with Tween-80) is 98 % of control and the T/C under setting [1] was 97 % of control.

In the case of `CS1(C)=NC(=O)c2cc([N+](=O)[O-])ccc2N=1`, the T/C runs as follows: under setting [2], 94 % of control; under setting [3], 94 % of control; under setting [4], 92 % of control.

Turning to `Cc1c2c(c(C)c3c1C(=O)c1cc4c(cc1C3=O)OCO4)OCO2`, the T/C runs as follows: under setting [2], 92 % of control; under setting [3], 99 % of control; under setting [4], 102 % of control.

Turning to `COc1ccc(C(=O)c2[nH]ncc2Nc2ccccc2)cc1`, the T/C (dose: 60.0 mg/kg/injection, schedule: Q01DX005 (ip), vehicle: Klucel (hydroxypropylcellulose) (HPC)) is 97 % of control; the T/C (dose: 120.0 mg/kg/injection, schedule: Q01DX005 (ip), vehicle: Klucel (hydroxypropylcellulose) (HPC)) is 117 % of control; the T/C (dose: 240.0 mg/kg/injection, schedule: Q01DX005 (ip), vehicle: Klucel (hydroxypropylcellulose) (HPC)) was 91 % of control.

With `CC1CN2C(=O)C1(c1ccccc1)C(=O)NC2=S` (centres undefined), the T/C reads like this: under setting [5], 98 % of control; under setting [6], 107 % of control; under setting [7], 100 % of control.

For `C[n+]1cccc(C(=O)O)c1`, the T/C is 100 % of control (dose: 25.0 mg/kg/injection, schedule: Q01DX005 (ip), vehicle: saline); 101 % of control (dose: 50.0 mg/kg/injection, schedule: Q01DX005 (ip), vehicle: saline); 99 % of control (dose: 100.0 mg/kg/injection, schedule: Q01DX005 (ip), vehicle: saline); 91 % of control (dose: 200.0 mg/kg/injection, schedule: Q01DX005 (ip), vehicle: saline).

For the molecule `[Cl][Pt+2][Cl].[NH-]CC([NH-])c1ccccc1` (centres undefined), the T/C (dose: 6.25 mg/kg/injection, schedule: Q04DX002 (ip), vehicle: saline with Tween-80) is 179 % of control; the T/C (dose: 12.5 mg/kg/injection, schedule: Q01DX001 (ip), vehicle: Klucel (hydroxypropylcellulose) (HPC)) was 152 % of control; the T/C (dose: 12.5 mg/kg/injection, schedule: Q04DX002 (ip), vehicle: saline with Tween-80) is 194 % of control; the T/C (dose: 25.0 mg/kg/injection, schedule: Q01DX001 (ip), vehicle: Klucel (hydroxypropylcellulose) (HPC)) was 179 % of control; the T/C (dose: 25.0 mg/kg/injection, schedule: Q04DX002 (ip), vehicle: saline with Tween-80) is 220 % of control; the T/C (dose: 50.0 mg/kg/injection, schedule: Q01DX001 (ip), vehicle: Klucel (hydroxypropylcellulose) (HPC)) is 157 % of control and 163 % of control.

For the molecule `COC(=O)Nc1nc2ccc(OCCO)cc2[nH]1`, the T/C is, setting by setting: (dose: 25.0 mg/kg/injection, schedule: Q01DX005 (ip), vehicle: DMSO) 104 % of control; (dose: 50.0 mg/kg/injection, schedule: Q01DX005 (ip), vehicle: DMSO) 100 % of control; (dose: 100.0 mg/kg/injection, schedule: Q01DX005 (ip), vehicle: DMSO) 104 % of control; (dose: 200.0 mg/kg/injection, schedule: Q01DX005 (ip), vehicle: DMSO) 103 % of control; (dose: 400.0 mg/kg/injection, schedule: Q01DX005 (ip), vehicle: DMSO) 101 % of control.

In the case of `O=C(CSC1CCc2ccccc21)NNC(=O)Nc1ccc(Cl)cc1` (centres undefined), the T/C by setting is: under setting [8], 90 % of control; under setting [9], 95 % of control; (dose: 200.0 mg/kg/injection, schedule: Q01DX005 (ip), vehicle: Klucel (hydroxypropylcellulose) (HPC)) 89 % of control.

With `COc1ccc(CO)cc1O`, the T/C is, setting by setting: under setting [10], 105 % of control and 97 % of control; (dose: 200.0 mg/kg/injection, schedule: Q01DX009 (ip), vehicle: saline) 104 % of control and 107 % of control; (dose: 400.0 mg/kg/injection, schedule: Q01DX009 (ip), vehicle: saline) 104 % of control; (dose: 600.0 mg/kg/injection, schedule: Q01DX009 (ip), vehicle: saline) 95 % of control and 96 % of control.

Turning to `CCOC(=O)c1cnc2ccccn2c1=O`, the T/C is, setting by setting: (dose: 50.0 mg/kg/injection, schedule: Q01DX009 (ip), vehicle: saline) 90 % of control; under setting [10], 88 % of control.

`O=S(=O)(CC(O)C(Cl)(Cl)Cl)N(Cc1ccccc1)Cc1ccccc1` (centres undefined): the T/C under setting [5] is 103 % of control, the T/C under setting [6] is 103 % of control and the T/C under setting [7] was 97 % of control.

In the case of `N#CC(C#N)=C1CCNc2ccccc21`, the T/C was 95 % of control under setting [1]; 95 % of control (dose: 200.0 mg/kg/injection, schedule: Q01DX009 (ip), vehicle: saline with Tween-80); 95 % of control (dose: 400.0 mg/kg/injection, schedule: Q01DX009 (ip), vehicle: saline with Tween-80).

Regarding `O=C1c2ccccc2C(=O)N1CCC(=O)n1ccnc1`, the T/C is, setting by setting: (dose: 17.5 mg/kg/injection, schedule: Q01DX005 (ip), vehicle: Klucel (hydroxypropylcellulose) (HPC)) 104 % of control; (dose: 35.0 mg/kg/injection, schedule: Q01DX005 (ip), vehicle: Klucel (hydroxypropylcellulose) (HPC)) 97 % of control; (dose: 70.0 mg/kg/injection, schedule: Q01DX005 (ip), vehicle: Klucel (hydroxypropylcellulose) (HPC)) 99 % of control.

In the case of `COc1ccc(NC(=O)c2ccc(C(=O)Nc3ccc(OC)cc3)cc2)cc1`, the T/C runs as follows: (dose: 50.0 mg/kg/injection, schedule: Q01DX001 (ip), vehicle: other) 90 % of control; (dose: 100.0 mg/kg/injection, schedule: Q01DX001 (ip), vehicle: other) 95 % of control; (dose: 200.0 mg/kg/injection, schedule: Q01DX001 (ip), vehicle: other) 90 % of control; (dose: 400.0 mg/kg/injection, schedule: Q01DX001 (ip), vehicle: other) 95 % of control.

As for `CN(C)CCCNC(=O)NCCCCCCNC(=O)NCCCN(C)C`, the T/C (dose: 50.0 mg/kg/injection, schedule: Q01DX005 (ip), vehicle: saline with Tween-80) was 93 % of control and the T/C (dose: 100.0 mg/kg/injection, schedule: Q01DX005 (ip), vehicle: saline with Tween-80) is 86 % of control.

Consider `CCN(CC)CCN1C(=O)c2cccc3cc([N+](=O)[O-])cc(c23)C1=O`, for which the T/C is 107 % of control (dose: 12.5 mg/kg/injection, schedule: Q01DX005 (ip), vehicle: Klucel (hydroxypropylcellulose) (HPC)); 124 % of control (dose: 25.0 mg/kg/injection, schedule: Q01DX005 (ip), vehicle: Klucel (hydroxypropylcellulose) (HPC)); 156 % of control under setting [8]; 195 % of control under setting [9].

With `CSc1nc2c(nnn2C2OC(CO)C(O)C(O)C2O)c(=O)n1C` (centres undefined), the T/C was 97 % of control (dose: 60.0 mg/kg/injection, schedule: Q01DX005 (ip), vehicle: saline); 97 % of control (dose: 120.0 mg/kg/injection, schedule: Q01DX005 (ip), vehicle: saline); 100 % of control (dose: 240.0 mg/kg/injection, schedule: Q01DX005 (ip), vehicle: saline).

Take `Cc1ccc(-n2c(N)cc(=O)[nH]c2=S)nc1`: the T/C is, setting by setting: (dose: 56.25 mg/kg/injection, schedule: Q01DX001 (ip), vehicle: saline with Tween-80) 104 % of control; (dose: 112.5 mg/kg/injection, schedule: Q01DX001 (ip), vehicle: saline with Tween-80) 100 % of control; (dose: 225.0 mg/kg/injection, schedule: Q01DX001 (ip), vehicle: saline with Tween-80) 90 % of control.

With `CCCCN(CCCC)P(=O)(N1CC1)N1CC1`, the T/C (dose: 6.25 mg/kg/injection, schedule: Q01DX009 (ip), vehicle: saline) is 118 % of control; the T/C (dose: 16.5 mg/kg/injection, schedule: Q01DX009 (ip), vehicle: saline) is 175 % of control; the T/C (dose: 100.0 mg/kg/injection, schedule: Q04DX003 (ip), vehicle: saline) is 90 % of control.
